# Article PMC8909834, “An Orally Bioavailable and Highly Efficacious Inhibitor of CDK9/FLT3 for the Treatment of Acute Myeloid Leukemia” (Cancers, 2022)
# Where two headings read alike, the source gives them in different places.
# Experiments:
# [1] = Blood to plasma ratio; assay type: in vitro ADME; details: mouse, in mice
# [2] = system: MV4-11 cells; test: Detection of apoptosis (annexin V/PI assay); assay type: cell-based; details: MV4-11, 1 µM
# Protocol: (§1) Detection of apoptosis and cell cycle analysis. Detection of apoptosis and cell cycle analysis were performed as described previously. Cells (1 × 10^5 cells/mL) were seeded into a six-well plate (Corning) and incubated overnight at 37 °C, 5% CO2 prior to incubation with different concentrations of CDDD11-8 or control (0.1% final DMSO concentration) for 6, 24, or 72 h. For washout experiments, cells were incubated with compounds for 6 h, then washed three times with 1 × PBS interspersed with centrifugation at 300× g for 5 min to remove compound. After incubation at 37 °C under 5% CO2, cells were centrifuged at 300× g for 5 min to form a pellet, washed with PBS, and incubated with Annexin V/PI (Becton Dickenson, Franklin Lakes, NJ, USA) for 15 min in the dark. For cell cycle analysis, cells were fixed with 70% ethanol (v/v, 4 °C) and incubated in the dark with cell cycle staining solution (50 µg/mL PI, 0.1 mg/mL RNase A, 0.05% Triton X-100) for 1.5 h. Samples were analyzed using a CytoFlex flow cytometer (Beckman Coulter, Brea, CA, USA). Data were analyzed with CytExpert software version 2.1 (Beckman Coulter, Brea, CA, USA).
# [3] = system: THP-1 cells; test: Detection of apoptosis (annexin V/PI assay); assay type: cell-based; details: apoptosis seen at 1.5 µM and 24 and 72 h
# Protocol: as §1
# [4] = system: MOLM-13 cells; test: Detection of apoptosis (annexin V/PI assay); assay type: cell-based; details: MOLM-13, 1 µM
# Protocol: as §1
# [5] = molecular target: T1, JNK3 (Homo sapiens, UniProt P53779); test: Kinase Hotspot radiolabel assay; assay type: biochemical; details: read-out: % Residual Activity
# T1 construct: purchased Reaction Biology Corporation (Kinase HotSpot)
# T1 sequence (P53779 whole entry): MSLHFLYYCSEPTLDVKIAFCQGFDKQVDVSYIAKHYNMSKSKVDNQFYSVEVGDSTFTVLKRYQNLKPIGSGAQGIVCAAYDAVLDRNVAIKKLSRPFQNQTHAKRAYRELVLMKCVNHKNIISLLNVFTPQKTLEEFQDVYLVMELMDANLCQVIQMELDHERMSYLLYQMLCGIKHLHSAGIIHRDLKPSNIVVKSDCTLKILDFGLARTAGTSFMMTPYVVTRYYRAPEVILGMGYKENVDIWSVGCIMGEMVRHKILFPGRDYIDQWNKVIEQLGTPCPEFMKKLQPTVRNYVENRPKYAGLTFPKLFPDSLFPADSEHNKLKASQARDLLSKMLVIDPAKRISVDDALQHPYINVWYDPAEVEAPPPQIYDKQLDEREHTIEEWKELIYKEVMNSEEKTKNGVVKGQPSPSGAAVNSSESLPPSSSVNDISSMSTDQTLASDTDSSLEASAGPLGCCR
# Summary of the method: (§2)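 Radiometric Hotspot screen: single test concentration of 1 µM, 369 kinases. Ki follow-up was applied only where inhibition exceeded 90%.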
# [6] = molecular target: T2, CDK2/Cyclin A1 (Homo sapiens, UniProt P24941); test: Kinase Hotspot radiolabel assay; assay type: biochemical; details: read-out: % Residual Activity
# T2 construct: purchased Reaction Biology Corporation (Kinase HotSpot)
# Summary of the method: as §2
# [7] = molecular target: T3, STK32B/YANK2 (Homo sapiens, UniProt Q9NY57); test: Kinase Hotspot radiolabel assay; assay type: biochemical; details: read-out: % Residual Activity
# T3 construct: purchased Reaction Biology Corporation (Kinase HotSpot)
# T3 sequence (Q9NY57 whole entry): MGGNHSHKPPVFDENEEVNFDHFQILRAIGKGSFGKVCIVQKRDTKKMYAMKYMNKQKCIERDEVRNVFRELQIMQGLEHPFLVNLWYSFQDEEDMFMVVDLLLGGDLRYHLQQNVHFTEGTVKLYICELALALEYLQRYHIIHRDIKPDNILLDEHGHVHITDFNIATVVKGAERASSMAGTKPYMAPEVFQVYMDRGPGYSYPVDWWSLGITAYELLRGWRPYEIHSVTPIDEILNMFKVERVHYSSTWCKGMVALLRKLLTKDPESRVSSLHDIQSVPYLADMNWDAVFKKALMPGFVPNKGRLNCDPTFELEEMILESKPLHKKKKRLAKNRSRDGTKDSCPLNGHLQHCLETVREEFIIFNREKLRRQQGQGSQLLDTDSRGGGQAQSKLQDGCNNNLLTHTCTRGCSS
# Summary of the method: as §2
# [8] = molecular target: T4, GCK/MAP4K2 (Homo sapiens, UniProt Q12851); test: Kinase Hotspot radiolabel assay; assay type: biochemical; details: read-out: % Residual Activity
# T4 construct: purchased Reaction Biology Corporation (Kinase HotSpot)
# T4 sequence (Q12851 whole entry): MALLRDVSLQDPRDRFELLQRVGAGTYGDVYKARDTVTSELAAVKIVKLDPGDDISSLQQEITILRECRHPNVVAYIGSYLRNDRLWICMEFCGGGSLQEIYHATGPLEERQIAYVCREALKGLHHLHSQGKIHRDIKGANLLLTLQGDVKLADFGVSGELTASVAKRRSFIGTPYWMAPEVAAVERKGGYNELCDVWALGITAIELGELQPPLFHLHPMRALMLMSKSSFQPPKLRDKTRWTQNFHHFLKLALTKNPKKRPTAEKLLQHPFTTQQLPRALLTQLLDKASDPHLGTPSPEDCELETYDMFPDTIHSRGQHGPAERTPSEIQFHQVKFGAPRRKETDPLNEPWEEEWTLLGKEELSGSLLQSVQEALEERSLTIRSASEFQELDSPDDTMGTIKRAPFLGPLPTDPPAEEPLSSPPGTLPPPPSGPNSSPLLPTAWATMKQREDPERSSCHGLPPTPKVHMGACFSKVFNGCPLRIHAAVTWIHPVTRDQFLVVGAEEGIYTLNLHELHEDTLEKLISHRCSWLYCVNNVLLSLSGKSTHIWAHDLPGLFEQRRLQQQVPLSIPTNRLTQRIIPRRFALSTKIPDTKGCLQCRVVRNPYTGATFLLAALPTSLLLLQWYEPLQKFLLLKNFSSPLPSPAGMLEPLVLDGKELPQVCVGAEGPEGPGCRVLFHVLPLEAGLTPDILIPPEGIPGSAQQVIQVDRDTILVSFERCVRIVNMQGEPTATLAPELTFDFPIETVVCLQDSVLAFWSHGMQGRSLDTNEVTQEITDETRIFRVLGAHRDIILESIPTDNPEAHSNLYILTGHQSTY
# Summary of the method: as §2
# [9] = molecular target: T5, CLK4 (Homo sapiens, UniProt Q9HAZ1); test: Kinase Hotspot radiolabel assay; assay type: biochemical; details: read-out: % Residual Activity
# T5 construct: purchased Reaction Biology Corporation (Kinase HotSpot)
# T5 sequence (Q9HAZ1 whole entry): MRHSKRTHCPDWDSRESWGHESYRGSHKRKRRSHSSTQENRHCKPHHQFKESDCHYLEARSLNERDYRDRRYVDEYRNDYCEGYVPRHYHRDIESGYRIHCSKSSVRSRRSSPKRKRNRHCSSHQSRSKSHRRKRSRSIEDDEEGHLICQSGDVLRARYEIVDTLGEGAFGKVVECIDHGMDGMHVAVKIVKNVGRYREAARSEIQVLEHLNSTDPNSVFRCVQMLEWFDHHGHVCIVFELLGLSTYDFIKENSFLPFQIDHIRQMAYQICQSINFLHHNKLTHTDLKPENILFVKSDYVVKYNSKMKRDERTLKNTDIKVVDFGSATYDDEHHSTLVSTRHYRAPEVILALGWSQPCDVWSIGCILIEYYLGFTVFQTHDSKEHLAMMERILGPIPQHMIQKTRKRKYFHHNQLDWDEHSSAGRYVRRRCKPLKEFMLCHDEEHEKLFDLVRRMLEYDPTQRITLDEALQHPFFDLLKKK
# Summary of the method: as §2
# [10] = molecular target: T6, PKCmu/PRKD1 (Homo sapiens, UniProt Q15139); test: Kinase Hotspot radiolabel assay; assay type: biochemical; details: read-out: % Residual Activity
# T6 construct: purchased Reaction Biology Corporation (Kinase HotSpot)
# T6 sequence (Q15139 whole entry): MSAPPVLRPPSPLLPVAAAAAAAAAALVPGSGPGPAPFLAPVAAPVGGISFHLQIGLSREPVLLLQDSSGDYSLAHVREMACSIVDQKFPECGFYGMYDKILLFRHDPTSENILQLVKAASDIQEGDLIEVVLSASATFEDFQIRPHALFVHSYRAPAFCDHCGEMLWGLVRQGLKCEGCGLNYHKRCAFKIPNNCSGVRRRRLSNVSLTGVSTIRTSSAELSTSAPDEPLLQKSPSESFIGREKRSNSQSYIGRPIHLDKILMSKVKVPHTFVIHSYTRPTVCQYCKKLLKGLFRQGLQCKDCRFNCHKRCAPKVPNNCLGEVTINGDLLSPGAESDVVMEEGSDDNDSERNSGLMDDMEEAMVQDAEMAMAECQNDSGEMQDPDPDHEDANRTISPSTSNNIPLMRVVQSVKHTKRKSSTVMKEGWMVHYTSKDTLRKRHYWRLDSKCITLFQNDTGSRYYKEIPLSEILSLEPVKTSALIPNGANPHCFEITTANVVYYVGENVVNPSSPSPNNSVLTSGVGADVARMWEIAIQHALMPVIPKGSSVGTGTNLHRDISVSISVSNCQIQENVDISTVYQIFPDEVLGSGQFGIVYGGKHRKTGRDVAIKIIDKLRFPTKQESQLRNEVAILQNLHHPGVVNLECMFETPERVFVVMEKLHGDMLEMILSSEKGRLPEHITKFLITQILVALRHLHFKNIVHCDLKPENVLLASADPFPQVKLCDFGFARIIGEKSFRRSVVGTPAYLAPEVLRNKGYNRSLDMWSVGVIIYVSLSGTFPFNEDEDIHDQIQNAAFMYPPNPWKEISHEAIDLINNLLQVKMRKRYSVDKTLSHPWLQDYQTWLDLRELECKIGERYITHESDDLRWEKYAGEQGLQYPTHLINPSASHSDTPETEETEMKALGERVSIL
# Summary of the method: as §2
# [11] = molecular target: T7, HPK1/MAP4K1 (Homo sapiens, UniProt Q92918); test: Kinase Hotspot radiolabel assay; assay type: biochemical; details: read-out: % Residual Activity
# T7 construct: purchased Reaction Biology Corporation (Kinase HotSpot)
# T7 sequence (Q92918 whole entry): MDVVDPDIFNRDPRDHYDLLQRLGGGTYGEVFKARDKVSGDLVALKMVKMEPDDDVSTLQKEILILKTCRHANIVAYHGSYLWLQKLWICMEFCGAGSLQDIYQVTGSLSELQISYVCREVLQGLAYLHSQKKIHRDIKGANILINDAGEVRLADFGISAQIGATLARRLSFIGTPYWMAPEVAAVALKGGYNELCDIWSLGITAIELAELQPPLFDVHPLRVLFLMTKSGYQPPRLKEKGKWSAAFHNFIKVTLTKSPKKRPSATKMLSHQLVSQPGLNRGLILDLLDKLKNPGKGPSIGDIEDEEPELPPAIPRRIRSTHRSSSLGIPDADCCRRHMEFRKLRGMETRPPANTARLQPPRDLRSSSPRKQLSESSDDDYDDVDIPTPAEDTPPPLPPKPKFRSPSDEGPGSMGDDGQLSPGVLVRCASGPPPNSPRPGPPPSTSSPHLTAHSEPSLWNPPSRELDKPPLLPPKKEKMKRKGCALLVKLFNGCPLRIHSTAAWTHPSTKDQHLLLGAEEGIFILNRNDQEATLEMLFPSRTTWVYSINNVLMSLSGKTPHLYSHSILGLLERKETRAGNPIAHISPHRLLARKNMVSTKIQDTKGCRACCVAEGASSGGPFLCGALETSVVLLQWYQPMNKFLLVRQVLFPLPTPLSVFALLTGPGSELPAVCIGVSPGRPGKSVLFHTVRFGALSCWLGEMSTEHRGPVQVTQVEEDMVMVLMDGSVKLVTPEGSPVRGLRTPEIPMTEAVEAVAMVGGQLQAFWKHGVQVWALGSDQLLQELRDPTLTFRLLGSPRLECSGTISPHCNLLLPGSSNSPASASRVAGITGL
# Summary of the method: as §2
# [12] = molecular target: T8, HCK (Homo sapiens, UniProt P08631); test: Kinase Hotspot radiolabel assay; assay type: biochemical; details: read-out: % Residual Activity
# T8 construct: purchased Reaction Biology Corporation (Kinase HotSpot)
# T8 sequence (P08631 whole entry): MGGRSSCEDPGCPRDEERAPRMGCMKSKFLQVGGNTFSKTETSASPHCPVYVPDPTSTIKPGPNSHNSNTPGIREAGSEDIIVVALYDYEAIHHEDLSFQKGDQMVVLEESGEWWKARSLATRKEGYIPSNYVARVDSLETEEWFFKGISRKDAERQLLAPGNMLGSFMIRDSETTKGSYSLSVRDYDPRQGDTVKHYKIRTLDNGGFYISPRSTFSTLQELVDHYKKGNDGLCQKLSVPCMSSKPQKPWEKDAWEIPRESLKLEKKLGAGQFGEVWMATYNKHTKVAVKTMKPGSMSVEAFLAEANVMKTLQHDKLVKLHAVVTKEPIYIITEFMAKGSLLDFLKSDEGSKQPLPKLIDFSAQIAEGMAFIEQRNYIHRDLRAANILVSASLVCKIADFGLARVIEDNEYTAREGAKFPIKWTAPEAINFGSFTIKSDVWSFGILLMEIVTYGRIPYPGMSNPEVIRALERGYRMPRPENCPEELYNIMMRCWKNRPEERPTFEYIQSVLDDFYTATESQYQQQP
# Summary of the method: as §2
# [13] = Drug concentration in plasma and tumor 4 h post final dose; assay type: in vivo, MV4-11 tumor-bearing mice; details: BALB/c nude (nu/nu), mouse, oral; for concentration at 4 h: 4 h post final dose
# Protocol: To investigate the effect of CDDD11-8 on its targets in vivo, MV4-11 tumor-bearing mice (n = 3) were treated with the vehicle, CDDD11-8 (75 and 125 mg/kg), orally for 5 days. Four hours post final dose, tumor samples were collected and lysates prepared for western blot analysis (Figure 4C, Supplementary Figure S19). […] These were accompanied by changes in the levels of the proteins involved in cancer cell survival.
# We also determined the concentration of CDDD11-8 in the plasma and tumor (Figure 4D, Supplementary Table S5). […] The tumor concentration from the 75 mg/kg dose was 2.5-times the plasma concentration. However, the plasma and tumor concentrations from 125 mg/kg were similar.
smiles,measurement,setting,value
Cc1cnc(N[C@H]2CC[C@H](N)CC2)nc1-c1cnc2ccc(-c3ccccc3)cn12 [CDDD11-8],blood plasma ratio,[1],0.71
same,apoptotic (Annexin V-positive) cells,[2]; 6 h,51%
same,apoptotic cells after washout,[2]; 6 h then 24 h without compound,28%
same,induction of apoptosis,[3],less impact
same,apoptotic (Annexin V-positive) cells,[4]; 6 h,86%
same,apoptotic cells after washout,[4]; 6 h then 24 h without compound,61%
same,remaining activity at 1 µM,[5],81.3%
same,remaining activity at 1 µM,[6],55.7%
same,remaining activity at 1 µM,[7],96.7%
same,remaining activity at 1 µM,[8],24.8%
same,remaining activity at 1 µM,[9],26.1%
same,remaining activity at 1 µM,[10],53.1%
same,remaining activity at 1 µM,[11],35.4%
same,remaining activity at 1 µM,[12],62.7%
same,concentration at 4 h,"[13]; plasma, 75 mg/kg, 75 mg/kg orally 5 days, mouse 1, read-out: Plasma concentration",490 ng/mL
same,concentration at 4 h,"[13]; plasma, 75 mg/kg, 75 mg/kg orally 5 days, mouse 2, read-out: Plasma concentration",441 ng/mL
same,concentration at 4 h,"[13]; plasma, 75 mg/kg, 75 mg/kg orally 5 days, mouse 3, read-out: Plasma concentration",1090 ng/mL
same,concentration at 4 h,"[13]; plasma, 125 mg/kg, 125 mg/kg orally 5 days, mouse 1, read-out: Plasma concentration",1440 ng/mL
same,concentration at 4 h,"[13]; plasma, 125 mg/kg, 125 mg/kg orally 5 days, mouse 2, read-out: Plasma concentration",2850 ng/mL
same,concentration at 4 h,"[13]; plasma, 125 mg/kg, 125 mg/kg orally 5 days, mouse 3, read-out: Plasma concentration",1800 ng/mL
same,concentration at 4 h,"[13]; tumor, 75 mg/kg, 75 mg/kg orally 5 days, mouse 1, read-out: Tumor concentration",2140 ng/g
same,concentration at 4 h,"[13]; tumor, 75 mg/kg, 75 mg/kg orally 5 days, mouse 2, read-out: Tumor concentration",1780 ng/g
same,concentration at 4 h,"[13]; tumor, 75 mg/kg, 75 mg/kg orally 5 days, mouse 3, read-out: Tumor concentration",1480 ng/g
same,Kp at 4 h,"[13]; tumor, 75 mg/kg, read-out: tumor concentration relative to plasma concentration",2.5
same,concentration at 4 h,"[13]; tumor, 125 mg/kg, 125 mg/kg orally 5 days, mouse 1, read-out: Tumor concentration",1680 ng/g
same,concentration at 4 h,"[13]; tumor, 125 mg/kg, 125 mg/kg orally 5 days, mouse 2, read-out: Tumor concentration",2310 ng/g
same,concentration at 4 h,"[13]; tumor, 125 mg/kg, 125 mg/kg orally 5 days, mouse 3, read-out: Tumor concentration",1850 ng/g
